Legend:
[1] = system: GPI-PLC, intact rat adipocytes; assay: GPI-PLC activity in intact rat adipocytes (amphiphilic-to-hydrophilic conversion of endogenous 5'-Nuc, Gce1, aP); type: cell-based
Procedure: Adipocytes isolated by digestion from epididymal fat pads of male rats (120-140 g, fed ad libitum, see Ref. 53 [Muller et al.; Mol. Cell. Biol. 21:[…] (2001)]) were washed twice in KRH (20 mM Hepes/KOH, pH 7.4, 1.2 mM KH2PO4, 140 mM NaCl, 4.7 mM KCl, 2.5 mM CaCl2, 1.2 mM MgSO4) containing 1% (w/v) BSA and then incubated in the same medium supplemented with 100 μg/ml gentamycin, 100 nM 1-methyl-2-phenylethyladenosine, 0.5 U/ml adenosine deaminase, 1 mM sodium pyruvate and 5 mM D-glucose in the absence or presence of GPI-2350 (prepared as 10 mM stock solution in DMSO, the final DMSO concentration in the in vitro and adipocyte incubations was kept constant at 0.5% at any inhibitor concentration), insulin or glimepiride (prepared as described in “Müller et al. (1994) J. Cell. Biol. 126:1267-1276”) at 37° C. in a shaking water bath at constant bubbling with 5% CO2/95% O2 at a final titer of 100 μl of packed cell volume per ml incubation volume (determined by aspiration of small aliquots into capillary hematocrit tubes and centrifugation for 60 s [seconds] in a microhematocrit centrifuge in order to determine the fractional occupation of the suspension by the adipocytes; 10% cytocrit corresponds to about 1.5×10^6 cells/ml) for the periods indicated. […]

[2] = system: pp59Lyn and Gce1 / caveolin-1 in hcDIGs of rat adipocytes; assay: Dissociation of pp59Lyn and Gce1 from caveolin-1; type: cell-based; settings: Adipocyte, FIG. 6 Panel B, read-out: IC50 for abrogation of losses from caveolin-1 immunoprecipitates
Procedure: Solubilized DIGs (see above, 5-20 μg protein) were precleared by incubation with protein A/G-Sepharose and subsequent centrifugation (10,000×g, 5 min). The supernatant was incubated with anti-caveolin-1 antibodies (1:1000) preadsorbed on protein A/G-Sepharose in 1 ml of 10 mM Tris/HCl (pH 7.4), 150 mM NaCl, 1% TX-100 for 1 h at 4° C. The immune complexes were washed twice with the same buffer and then twice with buffer lacking TX-100 and finally subjected to SDS-PAGE performed in the absence of β-mercaptoethanol. The recovery of immunoprecipitated caveolin was normalized by homologous immunoblotting with anti-caveolin antibodies of the same blot following stripping of the membrane.
Next we investigated the putative causal relationship between dissociation from caveolin/activation and stimulus-dependent lipolytic cleavage of GPI-proteins in rat adipocytes by inhibiting GPI-PLC and subsequent analysis of the interaction with caveolin-1 of Gce1 and pp59^Lyn as well as kinase activity of the latter (FIG. 6). […] This potency is similar to GPI-PLC inhibition by GPI-2350 in intact adipocytes (FIG. 3). […]

For `CCCCCCCCCCCCP1(=O)O[C@@H]2[C@H](O)[C@@H](O)[C@H](O)[C@@H](O)[C@@H]2O1` (stereo partly drawn) [GPI-2350, myo-inositol-1,2-cyclo-dodecylphosphonic acid], the IC50 ([1]; FIG. 8, read-out: concentration of half-maximal inhibition of the GPI-PLC) was 5 µM, the “reduction of basal and glimepiride-/insulin-stimulated GPI-PLC activity” value ([1]; intact adipocytes, concentration-dependent) was “to lower than basal and similar levels” and the IC50 [2] was 5 to 10 µM.
